Consider 31 molecules from US7153813B2, “Substituted aryl ketones” (Bayer Aktiengesellschaft, priority 2002, dated 2006).

Structures are written as SMILES. Like-named read-outs stand apart in the source and are kept apart here.

A short description of series [1]: logP determination by HPLC (EEC Directive 79/831 Annex V.A8), reverse-phase column C 18. It counts as physicochemical. The conditions noted are these: for chromatographic logP: reverse-phase C18 HPLC column, stated in the preparation example, read-out: Log P. The method, then:
The logP values given in the tables were determined in accordance with EEC Directive 79/831 Annex V.A8 by HPLC (High Performance Liquid Chromatography) using a reverse-phase column (C 18). Temperature: 43° C. • (a) Mobile phases for the determination in the acidic range: 0.1% aqueous phosphoric acid, acetonitrile; linear gradient from 10% acetonitrile to 90% acetonitrile—corresponding measurement data are marked a) in Table 1. • (b) Mobile phases for the determination in the neutral range: 0.01 molar aqueous phosphate buffer solution, acetonitrile; linear gradient from 10% acetonitrile to 90% acetonitrile—the corresponding measurement data are marked b) in Table 1. The calibration was carried out using unbranched alkan-2-ones (having 3 to 16 carbon atoms) with known logP values (determination of the logP values by the retention times using linear interpolation between two successive alkanones).

Series [2] deals with weeds. Nature of the series: Pre-Emergence Test (Example A), damage to weeds. It counts as in vivo. The conditions noted are these: soil sprayed 24 hours after sowing, rated after three weeks. Here is the method:
(§1) • Solvent: 5 parts by weight of acetone • Emulsifier: 1 part by weight of alkylaryl polyglycol ether
To produce a suitable preparation of active compound, 1 part by weight of active compound is mixed with the stated amount of solvent, the stated amount of emulsifier is added and the concentrate is diluted with water to the desired concentration.
Seeds of the test plants are sown in normal soil. After 24 hours, the soil is sprayed with the preparation of active compound such that the particular amount of active compound desired is applied per unit area. The concentration of active compound in the spray liquor is chosen such that the particular amount of active compound desired is applied in 1000 liters of water per hectare.
After three Weeks, the degree of damage to the plants is rated in % damage in comparison to the development of the untreated control. The figures denote: • 0%=no effect (like untreated control) • 100%=total destruction

Series [3] concerns weeds. Nature of the series: Post-Emergence Test (Example B), damage to weeds. It counts as in vivo. The conditions noted are these: test plants of 5–15 cm sprayed, rated after three weeks. The method, then: as §1
To produce a suitable preparation of active compound, 1 part by weight of active compound is mixed with the stated amount of solvent, the stated of amount of emulsifier is added and the concentrate is diluted with water to the desired concentration.
Test plants of a height of 5–15 cm are sprayed with the preparation of active compound such that the particular amounts of active compound desired are applied per unit area. The concentration of the spray liquor is chosen such that the particular amounts of active compound desired are applied in 1000 l of water/Ha.
After three weeks, the degree of damage to the plants is rated in % damage in comparison to the development of the untreated control.
The figures denote: • 0%=no effect (like untreated control) • 100%=total destruction

The mark [4] stands for this setting: HPLC, reverse-phase C 18, 43° C., acidic range: 0.1% aqueous phosphoric acid, acetonitrile, gradient 10% to 90% (marked a)).

As to `CCn1ncc(C(=O)c2ccc(C(F)(F)F)cc2CS(C)(=O)=O)c1O` [Example 1, (1-ethyl-5-hydroxy-1H-pyrazol-4-yl)-(2-methylsulphonylmethyl-4-trifluoromethylphenyl)methanone], in series [1] (setting [4]), the logP result is reported as “logP = 1.88^a)”. The chromatographic logP in series [1] was found to be 1.88. Besides, the “activity against weeds (degree of damage)” value (“activity against weeds” for short) in series [2] and in series [3] was “strong activity” each time.
On to `CCn1ncc(C(=O)c2ccc(C(F)(F)F)cc2CS(C)(=O)=O)c1OCc1ccc(Br)cc1` [Example 2, [1-ethyl-5-(4-bromophenylmethoxy)-1H-pyrazol-4-yl]-(2-methylsulphonylmethyl-4-trifluoromethylphenyl)methanone], for which the logP entry in series [1] (setting [4]) was “logP = 3.76^a)”. Also, in series [1], the chromatographic logP was determined as 3.76. The “activity against weeds” value in series [2] and in series [3] was “strong activity” throughout.
Consider `Cn1ncc(C(=O)c2ccc(C(F)(F)F)cc2CS(C)(=O)=O)c1O` [Example 4], for which the logP result in series [1] (setting [4]) is recorded as “logP = 1.57^a)”. For the same molecule, the “activity against weeds” value in series [2] is “strong activity”.
`Cn1ncc(C(=O)c2ccc(C(F)(F)F)cc2CS(C)(=O)=O)c1OCc1ccccc1` [Example 5]: in series [1], the logP result was “logP = 2.94^a)”. For the same molecule, the “activity against weeds” value in series [2] and in series [3] was “strong activity” each time.
Turning to `Cn1ncc(C(=O)c2ccc(C(F)(F)F)cc2CS(C)(=O)=O)c1OCc1ccc(F)cc1` [Example 6], in series [1], the logP entry was “logP = 3.02^a)”. Moreover, in series [2], the “activity against weeds” value was “strong activity”.
The corresponding values for `Cn1ncc(C(=O)c2ccc(C(F)(F)F)cc2CS(C)(=O)=O)c1OCc1ccc(Cl)cc1` [Example 7] are “logP = 3.32^a)” and “strong activity”.
The corresponding values for `Cn1ncc(C(=O)c2ccc(C(F)(F)F)cc2CS(C)(=O)=O)c1OCc1ccc(Br)cc1` [Example 8] are “logP = 3.41^a)” and “strong activity”.
As to `Cc1ccc(COc2c(C(=O)c3ccc(C(F)(F)F)cc3CS(C)(=O)=O)cnn2C)cc1` [Example 9], the logP result in series [1] is listed as “logP = 3.26^a)”. Further, the “activity against weeds” value in series [2] is “strong activity”.
For `CCn1ncc(C(=O)c2ccc(C(F)(F)F)cc2CS(C)(=O)=O)c1OCc1ccc(Cl)cc1` [Example 10] the same measures were “logP = 3.64^a)” and “strong activity”.
For `CCn1ncc(C(=O)c2ccc(C(F)(F)F)cc2CS(C)(=O)=O)c1OCc1ccccc1` [Example 11] the same measures were “logP = 3.26^a)” and “strong activity”.
For the molecule `CCn1ncc(C(=O)c2ccc(C(F)(F)F)cc2CS(C)(=O)=O)c1OCc1ccc(F)cc1` [Example 12], the logP result in series [1] is “logP = 3.30^a)”. The “activity against weeds” value in series [2] is listed as “strong activity”.
The corresponding values for `CCn1ncc(C(=O)c2ccc(C(F)(F)F)cc2CS(C)(=O)=O)c1OCc1ccc(C)cc1` [Example 13] are “logP = 3.57^a)” and “strong activity”.
Consider `CCn1ncc(C(=O)c2ccc(C(F)(F)F)cc2CS(C)(=O)=O)c1OCc1cccc(F)c1` [Example 14], for which, in series [1], the logP result is listed as “logP = 3.30^a)”. In series [2], the “activity against weeds” value was “strong activity”.
The corresponding values for `CCn1ncc(C(=O)c2ccc(C(F)(F)F)cc2CS(C)(=O)=O)c1OCc1cccc(Cl)c1` [Example 15] are “logP = 3.60^a)” and “strong activity”.
For `CCn1ncc(C(=O)c2ccc(C(F)(F)F)cc2CS(C)(=O)=O)c1OCc1cccc(C)c1` [Example 16] the same measures were “logP = 3.57^a)” and “strong activity”.
The corresponding values for `CCn1ncc(C(=O)c2ccc(C(F)(F)F)cc2CS(C)(=O)=O)c1OCc1ccccc1F` [Example 17] are “logP = 3.29^a)” and “strong activity”.
As to `CCn1ncc(C(=O)c2ccc(C(F)(F)F)cc2CS(C)(=O)=O)c1OCc1ccccc1Cl` [Example 18], in series [1], the logP result is given as “logP = 3.56^a)”. The “activity against weeds” value in series [2] and in series [3] was “strong activity” in each case.
In the case of `CCn1ncc(C(=O)c2ccc(C(F)(F)F)cc2CS(C)(=O)=O)c1OCc1ccccc1C` [Example 19], the logP result in series [1] is listed as “logP = 3.52^a)”. For the same molecule, the “activity against weeds” value in series [2] and in series [3] was “strong activity” throughout.
`CCn1ncc(C(=O)c2ccc(C(F)(F)F)cc2CS(C)(=O)=O)c1OCC(=O)c1ccccc1` [Example 20]: the logP result in series [1] was “logP = 3.01^a)”. The “activity against weeds” value in series [2] and in series [3] was “strong activity” each time.
In the case of `CCn1ncc(C(=O)c2ccc(C(F)(F)F)cc2CS(C)(=O)=O)c1OC(=O)c1ccccc1` [Example 21], the logP result in series [1] is listed as “logP = 3.07^a)”. For the same molecule, in series [2], the “activity against weeds” value was “strong activity”.
As for `CCn1ncc(C(=O)c2ccc(C(F)(F)F)cc2CS(C)(=O)=O)c1OS(=O)(=O)c1ccc(C)cc1` [Example 22], the logP result in series [1] (setting [4]) was “logP = 3.39^a)”. Also, the “activity against weeds” value in series [2] was “strong activity”.
Take `CCn1ncc(C(=O)c2ccc(C(F)(F)F)cc2CS(C)(=O)=O)c1OS(C)(=O)=O` [Example 23]: the logP result in series [1] is recorded as “logP = 2.50^a)”. The “activity against weeds” value in series [2] and in series [3] was “strong activity” throughout.
On to `C#CCOc1c(C(=O)c2ccc(C(F)(F)F)cc2CS(C)(=O)=O)cnn1CC` [Example 24], for which the logP result in series [1] was “logP = 2.59^a)”.
As to `CCOC(=O)COc1c(C(=O)c2ccc(C(F)(F)F)cc2CS(C)(=O)=O)cnn1CC` [Example 25], in series [1], the logP entry is recorded as “logP = 2.72^a)”.
Consider `CCOC(=O)C(C)Oc1c(C(=O)c2ccc(C(F)(F)F)cc2CS(C)(=O)=O)cnn1CC` (centres unmarked) [Example 26], for which the logP entry in series [1] is listed as “logP = 3.01^a)”.
Still for that read-out and setting: as for `CCOC(=O)COc1c(C(=O)c2ccc(C(F)(F)F)cc2CS(C)(=O)=O)cnn1C` [Example 27], the entry is “logP = 2.44^a)”; as for `CCOC(=O)C(C)Oc1c(C(=O)c2ccc(C(F)(F)F)cc2CS(C)(=O)=O)cnn1C` (centres unmarked) [Example 28], “logP = 2.70^a)”.
On the same count and under the same terms, as for `C#CCOc1c(C(=O)c2ccc(C(F)(F)F)cc2CS(C)(=O)=O)cnn1C` [Example 29], the entry is “logP = 2.30^a)”; as for `CC1(C)CCC(=O)C(C(=O)c2ccc(C(F)(F)F)cc2CS(C)(=O)=O)C1=O` (centres unmarked) [Example 30], “logP = 2.86^a)”.
With `CCSCc1cc(C(F)(F)F)ccc1C(=O)c1cnn(CC)c1O` [Example 32], the logP result in series [1] (setting [4]) was “logP = 3.36^a)”.
As for `CS(=O)(=O)Cc1cc(C(F)(F)F)ccc1C(=O)C1=C(Cl)CCCC1=O` [Example 33], in series [1], the logP entry is “logP = 2.42^a)”.
